Where “and” joins values, the source holds several entries; their conditions need not be identical. Identical values can stand only once.
Tested on: ZR-75-1 cells
Assay: NanoString human kinome mRNA quantification
Type: cell-based
From the text: Human mRNAs were hybridised to NanoString human kinome and control code sets, then subjected to quantification using NanoString software. […] To permit data compaction, and simple kinome‐wide comparisons, the fold changes are log2 transformed. […] Cell pellets were resuspended at a concentration of ~6,500 cells/μl in RLT buffer (Qiagen). […] For total copy numbers, triplicate normalised count values were averaged, and to calculate fold induction, means were divided by triplicate mean values from matched DMSO controls. P‐values were calculated using unpaired t‐test (GraphPad Prism software) by employing treated and control count data for each kinase mRNA.

Structure (SMILES): NC1(c2ccc(-c3nc4ccn5c(=O)[nH]nc5c4cc3-c3ccccc3)cc2)CCC1 [MK-2206]
- rank of SGK3 mRNA expression in the 536-member kinase panel (1 μM, day 5, ZR-75-1, DMSO control 230th): 94
- AAK1 Average normalised counts (AAK1 mRNA, average of 3 replicates): 782.49
- AAK1 Normalised counts (AAK1 mRNA, single replicates): 765.01 and 806.95 and 775.51
- AATK Average normalised counts (AATK mRNA, average of 3 replicates): 168.267
- AATK Normalised counts (AATK mRNA, single replicates): 168.73 and 152.79 and 183.28
- ABL1 Average normalised counts (ABL1 mRNA, average of 3 replicates): 597.787
- ABL1 Normalised counts (ABL1 mRNA, single replicates): 594.12 and 597.59 and 601.65
- ABL2 Average normalised counts (ABL2 mRNA, average of 3 replicates): 904.847
- ABL2 Normalised counts (ABL2 mRNA, single replicates): 861.36 and 926.84 and 926.34
- ACVR1B Normalised counts (ACVR1B mRNA, single replicates): 285.69
- ACVR1C Average normalised counts (ACVR1C mRNA, average of 3 replicates): 2.92
- ACVR1C Normalised counts (ACVR1C mRNA, single replicates): 2.39 and 2.5 and 3.87
- ACVR1 Normalised counts (ACVR1 mRNA, single replicates): 276.15 and 273.79
- ACVR2A Average normalised counts (ACVR2A mRNA, average of 3 replicates): 137.863
- ACVR2A Normalised counts (ACVR2A mRNA, single replicates): 146 and 131.94 and 135.65
- ACVR2B Average normalised counts (ACVR2B mRNA, average of 3 replicates): 119.837
- ACVR2B Normalised counts (ACVR2B mRNA, single replicates): 122.37 and 110.22 and 126.92
- ACVRL1 Average normalised counts (ACVRL1 mRNA, average of 3 replicates): 5.713
- ACVRL1 Normalised counts (ACVRL1 mRNA, single replicates): 4.2 and 5.1 and 7.84
- ADCK1 Average normalised counts (ADCK1 mRNA, average of 3 replicates): 103.98
- ADCK1 Normalised counts (ADCK1 mRNA, single replicates): 96.01 and 112.83 and 103.1
- ADCK2 Average normalised counts (ADCK2 mRNA, average of 3 replicates): 571.397
- ADCK2 Normalised counts (ADCK2 mRNA, single replicates): 535.04 and 567.18 and 611.97
- ADCK3 Average normalised counts (ADCK3 mRNA, average of 3 replicates): 173.12
- ADCK3 Normalised counts (ADCK3 mRNA, single replicates): 181.45 and 164.95 and 172.96
- ADCK4 Average normalised counts (ADCK4 mRNA, average of 3 replicates): 488.637
- ADCK4 Normalised counts (ADCK4 mRNA, single replicates): 486.86 and 483.78 and 495.27
- ADCK5 Average normalised counts (ADCK5 mRNA, average of 3 replicates): 272.407
- ADCK5 Normalised counts (ADCK5 mRNA, single replicates): 276.89 and 275.28
- ADRBK1 Average normalised counts (ADRBK1 mRNA, average of 3 replicates): 4377.38
- ADRBK1 Normalised counts (ADRBK1 mRNA, single replicates): 4312.7 and 4473.91 and 4345.53
- ADRBK2 Average normalised counts (ADRBK2 mRNA, average of 3 replicates): 361.227
- ADRBK2 Normalised counts (ADRBK2 mRNA, single replicates): 361.43 and 359.55 and 362.7
- AKT1 Average normalised counts (AKT1 mRNA, average of 3 replicates): 6880.64
- AKT1 Normalised counts (AKT1 mRNA, single replicates): 6785.99 and 6852.52 and 7003.4
- AKT2 Average normalised counts (AKT2 mRNA, average of 3 replicates): 2329.47
- AKT2 Normalised counts (AKT2 mRNA, single replicates): 2337.52 and 2309.87 and 2341.02
- AKT3 Average normalised counts (AKT3 mRNA, average of 3 replicates): 1.89
- AKT3 Normalised counts (AKT3 mRNA, single replicates): 2.39 and 1 and 2.28
- ALK Average normalised counts (ALK mRNA, average of 3 replicates): 1
- ALK Normalised counts (ALK mRNA, single replicates): 1
- ALPK2 Average normalised counts (ALPK2 mRNA, average of 3 replicates): 16.6133
- ALPK2 Normalised counts (ALPK2 mRNA, single replicates): 12.38 and 22.48 and 14.98
- ALPK3 Average normalised counts (ALPK3 mRNA, average of 3 replicates): 74.1967
- ALPK3 Normalised counts (ALPK3 mRNA, single replicates): 85.1 and 68.52 and 68.97
- AMHR2 Average normalised counts (AMHR2 mRNA, average of 3 replicates): 1
- AMHR2 Normalised counts (AMHR2 mRNA, single replicates): 1
- ANKK1 Average normalised counts (ANKK1 mRNA, average of 3 replicates): 2.167
- ANKK1 Normalised counts (ANKK1 mRNA, single replicates): 1 and 1.63 and 3.87
- ARAF Average normalised counts (ARAF mRNA, average of 3 replicates): 918.807
- ARAF Normalised counts (ARAF mRNA, single replicates): 894.08 and 950.29 and 912.05
- ATM Average normalised counts (ATM mRNA, average of 3 replicates): 3.063
- ATM Normalised counts (ATM mRNA, single replicates): 5.11 and 1 and 3.08
- ATR Average normalised counts (ATR mRNA, average of 3 replicates): 668.797
- ATR Normalised counts (ATR mRNA, single replicates): 672.29 and 661 and 673.1
- AURKA Average normalised counts (AURKA mRNA, average of 3 replicates): 948.07
- AURKA Normalised counts (AURKA mRNA, single replicates): 903.17 and 1006.76 and 934.28
- AURKB Average normalised counts (AURKB mRNA, average of 3 replicates): 1225.21
- AURKB Normalised counts (AURKB mRNA, single replicates): 1232.22 and 1235.24 and 1208.17
- AURKC Average normalised counts (AURKC mRNA, average of 3 replicates): 8.06
- AURKC Normalised counts (AURKC mRNA, single replicates): 7.84 and 7.71 and 8.63
- AXL Average normalised counts (AXL mRNA, average of 3 replicates): 5.22
- AXL Normalised counts (AXL mRNA, single replicates): 3.29 and 7.71 and 4.66
- BCKDK Average normalised counts (BCKDK mRNA, average of 3 replicates): 3561.04
- BCKDK Normalised counts (BCKDK mRNA, single replicates): 3631.88 and 3513.08 and 3538.17
- BCR Average normalised counts (BCR mRNA, average of 3 replicates): 1460.29
- BCR Normalised counts (BCR mRNA, single replicates): 1503.09 and 1393.35 and 1484.43
- BLK Average normalised counts (BLK mRNA, average of 3 replicates): 26.4533
- BLK Normalised counts (BLK mRNA, single replicates): 26.93 and 30.3 and 22.13
- BMP2K Average normalised counts (BMP2K mRNA, average of 3 replicates): 406.717
- BMP2K Normalised counts (BMP2K mRNA, single replicates): 374.15 and 422.97 and 423.03
- BMPR1A Average normalised counts (BMPR1A mRNA, average of 3 replicates): 4758.43
- BMPR1A Normalised counts (BMPR1A mRNA, single replicates): 4812.63 and 4697.18 and 4765.49
- BMPR1B Average normalised counts (BMPR1B mRNA, average of 3 replicates): 1516.82
- BMPR1B Normalised counts (BMPR1B mRNA, single replicates): 1517.63 and 1515.84 and 1516.98
- BMPR2 Average normalised counts (BMPR2 mRNA, average of 3 replicates): 568.93
- BMPR2 Normalised counts (BMPR2 mRNA, single replicates): 569.58 and 587.16 and 550.05
- BMX Average normalised counts (BMX mRNA, average of 3 replicates): 1
- BMX Normalised counts (BMX mRNA, single replicates): 1
- BRAF Average normalised counts (BRAF mRNA, average of 3 replicates): 627.873
- BRAF Normalised counts (BRAF mRNA, single replicates): 623.21 and 634.94 and 625.47
- BRD2 Average normalised counts (BRD2 mRNA, average of 3 replicates): 2991.5
- BRD2 Normalised counts (BRD2 mRNA, single replicates): 2957.43 and 3009.21 and 3007.86
- BRD3 Average normalised counts (BRD3 mRNA, average of 3 replicates): 697.943
- BRD3 Normalised counts (BRD3 mRNA, single replicates): 683.2 and 692.28 and 718.35
- BRD4 Average normalised counts (BRD4 mRNA, average of 3 replicates): 2588.8
